Measured values as given in the supplement of paper PMC10307832.

How the values were obtained:
Experiment in all cases: relative viability (nuclei count vs DMSO), 5 days (fraction); higher = more cells survive
A-427 = test system: A-427
Outline: (§1)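 Nuclei were stained with Hoechst during a one-step fixation (final 0.05% Triton X-100, 1% formaldehyde, 1 ug/ml Hoechst) carried out 5 days after dosing, then counted on 4× images. The cells, lung cancer lines in 1536-well plates, had been dosed by pin tool the day after seeding with one drug alone or a fixed anchor-drug dose plus five library-drug doses (not always all listed) in √10 steps. Relative viability is the nuclei count in treated wells divided by that in vehicle wells, and each value is the median of duplicate plates.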

BEN = test system: BEN
Outline: as §1

COR-L23 = test system: COR-L23
Outline: as §1

EKVX = test system: EKVX
Outline: as §1

HARA = test system: HARA
Outline: as §1

LC-2-ad = test system: LC-2-ad
Outline: as §1

LCLC-103H = test system: LCLC-103H
Outline: as §1

LOU-NH91 = test system: LOU-NH91
Outline: as §1

LU99A = test system: LU99A
Outline: as §1

NCI-H1650 = test system: NCI-H1650
Outline: as §1

NCI-H1666 = test system: NCI-H1666
Outline: as §1

NCI-H1793 = test system: NCI-H1793
Outline: as §1

NCI-H1915 = test system: NCI-H1915
Outline: as §1

NCI-H1944 = test system: NCI-H1944
Outline: as §1

NCI-H2087 = test system: NCI-H2087
Outline: as §1

NCI-H2170 = test system: NCI-H2170
Outline: as §1

NCI-H2228 = test system: NCI-H2228
Outline: as §1

NCI-H3122 = test system: NCI-H3122
Outline: as §1

NCI-H322M = test system: NCI-H322M
Outline: as §1

NCI-H520 = test system: NCI-H520
Outline: as §1

NCI-H727 = test system: NCI-H727
Outline: as §1

PC-14 = test system: PC-14
Outline: as §1

PC-3 [JPC-3] = test system: PC-3 [JPC-3]
Outline: as §1

SK-LU-1 = test system: SK-LU-1
Outline: as §1

Structure (SMILES): Oc1nc(-c2ccc(C(F)(F)F)cc2)nc2c1CSCC2 [XAV939] + CC(=O)c1c(C)c2cnc(Nc3ccc(N4CCNCC4)cn3)nc2n(C2CCCC2)c1=O [Palbociclib] (partner 0.5 µM)
- relative viability (A-427; first compound 0.08 µM): 0.525
- relative viability (A-427; first compound 0.253 µM): 0.52
- relative viability (A-427; first compound 0.8 µM): 0.502
- relative viability (A-427; first compound 2.53 µM): 0.504
- relative viability (BEN; first compound 0.08 µM): 0.508
- relative viability (BEN; first compound 0.253 µM): 0.438
- relative viability (BEN; first compound 0.8 µM): 0.485
- relative viability (BEN; first compound 2.53 µM): 0.45
- relative viability (COR-L23; first compound 0.08 µM): 0.291
- relative viability (COR-L23; first compound 0.253 µM): 0.261
- relative viability (COR-L23; first compound 0.8 µM): 0.237
- relative viability (COR-L23; first compound 2.53 µM): 0.249
- relative viability (EKVX; first compound 0.08 µM): 0.383
- relative viability (EKVX; first compound 0.253 µM): 0.343
- relative viability (EKVX; first compound 0.8 µM): 0.34
- relative viability (EKVX; first compound 2.53 µM): 0.227
- relative viability (HARA; first compound 0.08 µM): 0.334
- relative viability (HARA; first compound 0.253 µM): 0.22
- relative viability (HARA; first compound 0.8 µM): 0.234
- relative viability (HARA; first compound 2.53 µM): 0.242
- relative viability (LC-2-ad; first compound 0.08 µM): 0.502
- relative viability (LC-2-ad; first compound 0.253 µM): 0.397
- relative viability (LC-2-ad; first compound 0.8 µM): 0.462
- relative viability (LC-2-ad; first compound 2.53 µM): 0.478
- relative viability (LCLC-103H; first compound 0.08 µM): 0.53
- relative viability (LCLC-103H; first compound 0.253 µM): 0.499
- relative viability (LCLC-103H; first compound 0.8 µM): 0.514
- relative viability (LCLC-103H; first compound 2.53 µM): 0.449
- relative viability (LOU-NH91; first compound 0.08 µM): 0.609
- relative viability (LOU-NH91; first compound 0.253 µM): 0.54
- relative viability (LOU-NH91; first compound 0.8 µM): 0.54
- relative viability (LOU-NH91; first compound 2.53 µM): 0.419
- relative viability (LU99A; first compound 0.08 µM): 0.477
- relative viability (LU99A; first compound 0.253 µM): 0.406
- relative viability (LU99A; first compound 0.8 µM): 0.433
- relative viability (LU99A; first compound 2.53 µM): 0.424
- relative viability (NCI-H1650; first compound 0.08 µM): 0.268
- relative viability (NCI-H1650; first compound 0.253 µM): 0.297
- relative viability (NCI-H1650; first compound 0.8 µM): 0.299
- relative viability (NCI-H1650; first compound 2.53 µM): 0.234
- relative viability (NCI-H1666; first compound 0.08 µM): 0.678
- relative viability (NCI-H1666; first compound 0.253 µM): 0.552
- relative viability (NCI-H1666; first compound 0.8 µM): 0.623
- relative viability (NCI-H1666; first compound 2.53 µM): 0.64
- relative viability (NCI-H1793; first compound 0.08 µM): 0.353
- relative viability (NCI-H1793; first compound 0.253 µM): 0.317
- relative viability (NCI-H1793; first compound 0.8 µM): 0.307
- relative viability (NCI-H1793; first compound 2.53 µM): 0.281
- relative viability (NCI-H1915; first compound 0.08 µM): 0.592
- relative viability (NCI-H1915; first compound 0.253 µM): 0.54
- relative viability (NCI-H1915; first compound 0.8 µM): 0.567
- relative viability (NCI-H1915; first compound 2.53 µM): 0.511
- relative viability (NCI-H1944; first compound 0.08 µM): 0.347
- relative viability (NCI-H1944; first compound 0.253 µM): 0.337
- relative viability (NCI-H1944; first compound 0.8 µM): 0.34
- relative viability (NCI-H1944; first compound 2.53 µM): 0.267
- relative viability (NCI-H2087; first compound 0.08 µM): 0.325
- relative viability (NCI-H2087; first compound 0.253 µM): 0.182
- relative viability (NCI-H2087; first compound 0.8 µM): 0.224
- relative viability (NCI-H2087; first compound 2.53 µM): 0.164
- relative viability (NCI-H2170; first compound 0.08 µM): 0.41
- relative viability (NCI-H2170; first compound 0.253 µM): 0.263
- relative viability (NCI-H2170; first compound 0.8 µM): 0.436
- relative viability (NCI-H2170; first compound 2.53 µM): 0.322
- relative viability (NCI-H2228; first compound 0.08 µM): 0.971
- relative viability (NCI-H2228; first compound 0.253 µM): 0.613
- relative viability (NCI-H2228; first compound 0.8 µM): 0.664
- relative viability (NCI-H2228; first compound 2.53 µM): 0.657
- relative viability (NCI-H3122; first compound 0.08 µM): 0.2
- relative viability (NCI-H3122; first compound 0.253 µM): 0.196
- relative viability (NCI-H3122; first compound 0.8 µM): 0.184
- relative viability (NCI-H3122; first compound 2.53 µM): 0.153
- relative viability (NCI-H322M; first compound 0.08 µM): 0.521
- relative viability (NCI-H322M; first compound 0.253 µM): 0.464
- relative viability (NCI-H322M; first compound 0.8 µM): 0.456
- relative viability (NCI-H322M; first compound 2.53 µM): 0.433
- relative viability (NCI-H520; first compound 0.08 µM): 0.252
- relative viability (NCI-H520; first compound 0.8 µM): 0.183
- relative viability (NCI-H520; first compound 2.53 µM): 0.211
- relative viability (NCI-H727; first compound 0.08 µM): 0.711
- relative viability (NCI-H727; first compound 0.8 µM): 0.642
- relative viability (NCI-H727; first compound 2.53 µM): 0.644
- relative viability (PC-14; first compound 0.08 µM): 0.723
- relative viability (PC-14; first compound 0.253 µM): 0.47
- relative viability (PC-14; first compound 0.8 µM): 0.451
- relative viability (PC-14; first compound 2.53 µM): 0.375
- relative viability (PC-3 [JPC-3]; first compound 0.253 µM): 0.5
- relative viability (PC-3 [JPC-3]; first compound 0.8 µM): 0.523
- relative viability (PC-3 [JPC-3]; first compound 2.53 µM): 0.485
- relative viability (SK-LU-1; first compound 0.08 µM): 0.387
- relative viability (SK-LU-1; first compound 0.253 µM): 0.335
- relative viability (SK-LU-1; first compound 0.8 µM): 0.396
- relative viability (SK-LU-1; first compound 2.53 µM): 0.394
